Assay: Stability of cephalosporin C solution without thiol on heating
Type: physicochemical
Conditions: aqueous cephalosporin C solution without the thiol, 80° C.

With `CC(=O)OCC1=C(C(=O)O)N2C(=O)C(NC(=O)CCC[C@@H](N)C(=O)O)[C@H]2SC1` (stereo partly drawn) [cephalosporin C, 3-acetoxymethyl-7-(D-5-amino-5-carboxypentan amido)-ceph-3-em-4-carboxylic acid] the “time to complete degradation (β-lactam ring degradation)” value was no more than 40 min.

Source: patent publication US6642020B2, “Process for preparing cephalosporin derivatives” (Bioferma Murcia S.A., priority 2001, dated 2003)
